This note sets out measurements from patent US20260248972A1, “DUAL RECEPTOR TARGETING RADIOLIGANDS AND USES THEREOF RELATED APPLICATIONS” (priority 2022, published 2026).

One experiment addresses T1, CCK2R (Rattus norvegicus, UniProt P30553).
T1 construct: host or cells: AR42J cells
T1 sequence (P30553 1-452): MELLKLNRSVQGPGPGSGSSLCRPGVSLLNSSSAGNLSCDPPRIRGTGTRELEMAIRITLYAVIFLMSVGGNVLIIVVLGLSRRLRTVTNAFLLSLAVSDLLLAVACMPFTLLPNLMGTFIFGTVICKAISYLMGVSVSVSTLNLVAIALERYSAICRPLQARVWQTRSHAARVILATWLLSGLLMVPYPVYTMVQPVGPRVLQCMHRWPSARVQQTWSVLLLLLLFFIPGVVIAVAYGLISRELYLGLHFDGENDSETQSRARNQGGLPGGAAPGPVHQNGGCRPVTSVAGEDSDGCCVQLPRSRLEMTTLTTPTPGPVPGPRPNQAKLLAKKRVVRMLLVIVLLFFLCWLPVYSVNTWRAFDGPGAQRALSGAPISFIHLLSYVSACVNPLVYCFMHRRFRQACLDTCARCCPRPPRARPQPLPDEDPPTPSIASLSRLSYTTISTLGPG
The experiment can be described thus: Competitive cell-binding assay on AR42J cells with 125I-C3 as competitive ligand. The conditions noted are these: for IC50: AR42J cells, 125I-C3 competitive ligand, 37° C. 1 h, read-out: CCK2R/IC50. As to the method:
(§1) AR42J cells (ATCC) were maintained in RPMI-1640 medium (Gibco) supplemented with 15% fetal bovine serum (Gibco) and 1% penicillin-streptomycin (BI) at 37° C. in a humidified incubator with 5% CO2. The culture medium was replaced with fresh medium every 2-3 days. Experiments were performed with cells at 70-80% confluence.
(§2) Binding Affinity Tested by Using ^125I-Labeled Competitive Ligands.
(§3) The binding affinities of test compounds were determined by a competitive cell-binding assay using ^125I-C1 and ^125I-C3 as the competitive ligand. The suspended AR42J cells at a density of 1~3×10^6 cells/mL in binding buffer (RPMI-1640 medium supplemented with 0.25% bovine serum albumin) were transferred to a MultiScreen-DV Filter Plate (Millipore) with 100 μL per well except the blank group where the binding buffer was used instead. The cells were then incubated with ^125I-C1 and ^125I-C3 (0.02 μCi/well) in the presence of increasing concentrations (0-10000 nM) of test compounds at 37° C. for 1 h (n=3). The final volume in each well was maintained at 200 μL and insufficient volume was adjusted by the binding buffer. After the 1 h incubation, unbound ^125I-competitive ligands were removed by filtration using a Multiscreen vacuum manifold (Millipore) followed by rinses with the binding buffer (3 times). The filters were collected, and their radioactivity were individually measured by γ counter (2480 WIZARD2, PerkinElmer). The best-fit IC50value (inhibitory concentration when 50% of the bound ^125I-C1 and ^125l I-C3 on cells were displaced) of test compounds were calculated by fitting the data with nonlinear regression using GraphPad Prism 8.0.1.

Another experiment has as its target T2, SSTR2 (Rattus norvegicus, UniProt P30680).
T2 construct: host or cells: AR42J cells
Description: Competitive cell-binding assay on AR42J cells with 125I-C1 as competitive ligand. As to conditions: for IC50: AR42J cells, 125I-C1 competitive ligand, 37° C. 1 h, read-out: SSTR2/IC50. The procedure:
as §1, §2, §3

Like-named read-outs stand apart in the source and are kept apart here.

T2 sequence (P30680 whole entry): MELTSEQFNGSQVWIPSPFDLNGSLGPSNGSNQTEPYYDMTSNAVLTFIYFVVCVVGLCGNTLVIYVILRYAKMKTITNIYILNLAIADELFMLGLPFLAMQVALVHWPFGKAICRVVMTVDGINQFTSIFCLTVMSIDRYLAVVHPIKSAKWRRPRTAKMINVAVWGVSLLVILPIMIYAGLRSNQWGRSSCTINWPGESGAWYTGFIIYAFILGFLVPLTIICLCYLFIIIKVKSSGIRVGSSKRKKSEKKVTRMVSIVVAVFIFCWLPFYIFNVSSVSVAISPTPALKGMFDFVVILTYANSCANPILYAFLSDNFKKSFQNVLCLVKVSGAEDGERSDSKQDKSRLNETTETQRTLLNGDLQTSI

`C[C@@H](O)[C@H](NC(=O)[C@@H]1CSSC[C@H](NC(=O)[C@@H](Cc2ccccc2)NC(=O)COCCOCCNC(=O)[C@H](CCCCNC(=O)CN2CCN(CC(=O)O)CCN(CC(=O)O)CCN(CC(=O)O)CC2)NC(=O)CC[C@H](NC(=O)COCCOCCNC(=O)CC[C@H](NC(=O)[C@H](CCC(=O)O)NC(=O)c2cccc(NC(=O)N[C@@H]3CN(C4CCCCC4)c4ccccc4N(CC(=O)C(C)(C)C)C3=O)c2)C(=O)O)C(=O)O)C(=O)N[C@@H](Cc2ccc(O)cc2)C(=O)N[C@H](Cc2c[nH]c3ccccc23)C(=O)N[C@@H](CCCCN)C(=O)N[C@@H]([C@@H](C)O)C(=O)N1)C(=O)O` [Compound I-12, (Z360)-E-gE-OEG-gE-K(DOTA)-OEG-f[CYwKTC]T-OH]: the “Relative Binding Affinity CCK2R” value at CCK2R (based on mean IC50, C-2 = 1.00) worked out at 255. At SSTR2 (based on mean IC50, C-1 = 1.00), the “Relative Binding Affinity SSTR2” value is reported as 0.61.
Turning to `C[C@@H](O)[C@H](NC(=O)[C@@H]1CSSC[C@H](NC(=O)[C@@H](Cc2ccccc2)NC(=O)COCCOCCNC(=O)[C@H](CCCCNC(=O)CC[C@H](NC(=O)CNC(=O)c2cccc(NC(=O)N[C@@H]3CN(C4CCCCC4)c4ccccc4N(CC(=O)C(C)(C)C)C3=O)c2)C(=O)O)NC(=O)COCCOCCNC(=O)COCCOCCNC(=O)CC[C@H](NC(=O)CC[C@H](NC(=O)CN2CCN(CC(=O)O)CCN(CC(=O)O)CCN(CC(=O)O)CC2)C(=O)O)C(=O)O)C(=O)N[C@@H](Cc2ccc(O)cc2)C(=O)N[C@H](Cc2c[nH]c3ccccc23)C(=O)N[C@@H](CCCCN)C(=O)N[C@@H]([C@@H](C)O)C(=O)N1)C(=O)O` [Compound I-15, DOTA-gE-gE-OEG-OEG-K(-gE-G-Z360)-OEG-f[CYwKTC]T-OH], on CCK2R (based on mean IC50, C-2 = 1.00), the “Relative Binding Affinity CCK2R” value turned out to be 71.1. Further, the “Relative Binding Affinity SSTR2” value at SSTR2 (based on mean IC50, C-1 = 1.00) turned out to be 0.29.
In the case of `C[C@@H](O)[C@H](NC(=O)[C@@H]1CSSC[C@H](NC(=O)[C@@H](Cc2ccccc2)NC(=O)COCCOCCNC(=O)COCCOCCNC(=O)[C@H](CCCCNC(=O)CCC(C(=O)O)N2CCN(CC(=O)O)CCN(CC(=O)O)CCN(CC(=O)O)CC2)NC(=O)COCCOCCNC(=O)COCCOCCNC(=O)CC[C@H](NC(=O)CC[C@H](NC(=O)c2cccc(NC(=O)N[C@@H]3CN(C4CCCCC4)c4ccccc4N(CC(=O)C(C)(C)C)C3=O)c2)C(=O)O)C(=O)O)C(=O)N[C@@H](Cc2ccc(O)cc2)C(=O)N[C@H](Cc2c[nH]c3ccccc23)C(=O)N[C@@H](CCCCN)C(=O)N[C@@H]([C@@H](C)O)C(=O)N1)C(=O)O` (some centres unmarked) [Compound I-17, (Z360)- gE- gE- OEG- OEG- K(DOTAGA)- OEG- OEG- f[CYwKTC]T- OH (], the “Relative Binding Affinity CCK2R” value on CCK2R (based on mean IC50, C-2 = 1.00) amounted to 17.3. The “Relative Binding Affinity SSTR2” value on SSTR2 (based on mean IC50, C-1 = 1.00) was 0.16.
Turning to `C[C@@H](O)[C@H](NC(=O)[C@@H]1CSSC[C@H](NC(=O)[C@@H](Cc2ccccc2)NC(=O)COCCOCCNC(=O)[C@H](CCCCNC(=O)CCC(C(=O)O)N2CCN(CC(=O)O)CCN(CC(=O)O)CCN(CC(=O)O)CC2)NC(=O)COCCOCCNC(=O)c2cccc(NC(=O)N[C@@H]3CN(C4CCCCC4)c4ccccc4N(CC(=O)C(C)(C)C)C3=O)c2)C(=O)N[C@@H](Cc2ccc(O)cc2)C(=O)N[C@H](Cc2c[nH]c3ccccc23)C(=O)N[C@@H](CCCCN)C(=O)N[C@@H]([C@@H](C)O)C(=O)N1)C(=O)O` (some centres unmarked) [Compound I-31, Z360- OEG- K(DOTAGA)- OEG- f[CYwKTC]T- OH], the “Relative Binding Affinity CCK2R” value at CCK2R was 8.8. The “Relative Binding Affinity SSTR2” value at SSTR2 is reported as 4.75.
As for `C[C@@H](O)[C@H](NC(=O)[C@@H]1CSSC[C@H](NC(=O)[C@@H](Cc2ccccc2)NC(=O)COCCOCCNC(=O)[C@H](CCCCNC(=O)COCCOCCNC(=O)c2cccc(NC(=O)N[C@@H]3CN(C4CCCCC4)c4ccccc4N(CC(=O)C(C)(C)C)C3=O)c2)NC(=O)CN2CCN(CC(=O)O)CCN(CC(=O)O)CCN(CC(=O)O)CC2)C(=O)N[C@@H](Cc2ccc(O)cc2)C(=O)N[C@H](Cc2c[nH]c3ccccc23)C(=O)N[C@@H](CCCCN)C(=O)N[C@@H]([C@@H](C)O)C(=O)N1)C(=O)O` [Compound I-43, DOTA-K(-OEG-Z360)-OEG-f[CYwKTC]T-OH], on CCK2R, the “Relative Binding Affinity CCK2R” value turned out to be 4.0. Moreover, the “Relative Binding Affinity SSTR2” value on SSTR2 was 0.61.
Turning to `C[C@@H](O)[C@H](NC(=O)[C@@H]1CSSC[C@H](NC(=O)[C@@H](Cc2ccccc2)NC(=O)COCCOCCNC(=O)COCCOCCNC(=O)COCCOCCNC(=O)[C@H](CCCCNC(=O)c2cccc(NC(=O)N[C@@H]3CN(C4CCCCC4)c4ccccc4N(CC(=O)C(C)(C)C)C3=O)c2)NC(=O)CN2CCN(CC(=O)O)CCN(CC(=O)O)CCN(CC(=O)O)CC2)C(=O)N[C@@H](Cc2ccc(O)cc2)C(=O)N[C@H](Cc2c[nH]c3ccccc23)C(=O)N[C@@H](CCCCN)C(=O)N[C@@H]([C@@H](C)O)C(=O)N1)C(=O)O` [Compound I-45, DOTA-K(Z360)-OEG-OEG-OEG-f[CYwKTC]T-OH], the results for the IC50 at CCK2R and at SSTR2 were 9.9 nM and 2.07 nM, respectively. The “Relative Binding Affinity CCK2R” value at CCK2R (based on mean IC50, C-2 = 1.00) worked out at 1.7. Besides, the “Relative Binding Affinity SSTR2” value on SSTR2 (based on mean IC50, C-1 = 1.00) stood at 1.36.
Take `C[C@@H](O)[C@H](NC(=O)[C@@H]1CSSC[C@H](NC(=O)[C@@H](Cc2ccccc2)NC(=O)[C@H](CCCCNC(=O)COCCOCCNC(=O)COCCOCCNC(=O)COCCOCCNC(=O)c2cccc(NC(=O)N[C@@H]3CN(C4CCCCC4)c4ccccc4N(CC(=O)C(C)(C)C)C3=O)c2)NC(=O)CN2CCN(CC(=O)O)CCN(CC(=O)O)CCN(CC(=O)O)CC2)C(=O)N[C@@H](Cc2ccc(O)cc2)C(=O)N[C@H](Cc2c[nH]c3ccccc23)C(=O)N[C@@H](CCCCN)C(=O)N[C@@H]([C@@H](C)O)C(=O)N1)C(=O)O` [Compound I-46, DOTA-K(-OEG-OEG-OEG-Z360)-f[CYwKTC]T-OH]: the “Relative Binding Affinity CCK2R” value at CCK2R is recorded as 50.2. The “Relative Binding Affinity SSTR2” value on SSTR2 is given as 0.43.
With `C[C@@H](O)[C@H](NC(=O)[C@@H]1CSSC[C@H](NC(=O)[C@@H](Cc2ccccc2)NC(=O)COCCOCCNC(=O)[C@H](CCCCNC(=O)CC[C@H](NC(=O)CNC(=O)c2cccc(NC(=O)NC3CN(C4CCCCC4)c4ccccc4N(CC(=O)C(C)(C)C)C3=O)c2)C(=O)O)NC(=O)COCCOCCNC(=O)COCCOCCNC(=O)[C@@H](N)CCCCNC(=O)[C@@H](N)CCCCNC(=O)CN2CCN(CC(=O)O)CCN(CC(=O)O)CCN(CC(=O)O)CC2)C(=O)N[C@@H](Cc2ccc(O)cc2)C(=O)N[C@H](Cc2c[nH]c3ccccc23)C(=O)N[C@@H](CCCCN)C(=O)N[C@@H]([C@@H](C)O)C(=O)N1)C(=O)O` (some centres unmarked) [Compound I-65, DOTA-eK-eK-OEG-OEG-K(-gE-G-Z360)-OEG-f[CYwKTC]T-OH], the IC50 came out at 9.4 nM at CCK2R and 0.136 nM at SSTR2. Moreover, the “Relative Binding Affinity CCK2R” value on CCK2R (based on mean IC50, C-2 = 1.00) was found to be 1.8. Also, the “Relative Binding Affinity SSTR2” value at SSTR2 (based on mean IC50, C-1 = 1.00) is reported as 20.7.
